# Experimental data as given in ChEMBL document CHEMBL1143099, “Synthesis and SAR of potent and orally bioavailable tert-butylpyrrolidine archetype derived melanocortin subtype-4 receptor modulators” (Bioorg Med Chem Lett, 2008).
# Assays:
# Melanocortin receptor 3 [1] = target: T1, Melanocortin receptor 3 (Homo sapiens, UniProt P41968); test: Agonist activity at human MC3R expressed in CHO cells assessed as cAMP release at 10 uM relative to alpha-MSH; assay type: functional, cell-based
# Melanocortin receptor 5 [2] = target: T2, Melanocortin receptor 5 (Homo sapiens, UniProt P33032); test: Agonist activity at human MC5R expressed in CHO cells assessed as cAMP release at 10 uM relative to alpha-MSH; assay type: functional, cell-based
# T2 sequence (P33032 whole entry): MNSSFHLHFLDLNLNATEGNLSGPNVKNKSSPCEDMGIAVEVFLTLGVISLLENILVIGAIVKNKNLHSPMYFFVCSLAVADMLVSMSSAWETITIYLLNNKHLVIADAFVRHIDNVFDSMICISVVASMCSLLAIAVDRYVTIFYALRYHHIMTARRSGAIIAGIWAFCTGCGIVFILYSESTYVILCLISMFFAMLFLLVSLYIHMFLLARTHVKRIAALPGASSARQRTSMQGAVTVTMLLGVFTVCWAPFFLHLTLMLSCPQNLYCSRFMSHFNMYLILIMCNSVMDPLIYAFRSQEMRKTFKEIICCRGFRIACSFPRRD
# Melanocortin receptor 3 [3] = target: T1, Melanocortin receptor 3; test: Binding affinity to human MC3R
# Melanocortin receptor 4 [4] = target: T3, Melanocortin receptor 4 (Homo sapiens, UniProt P32245); test: Displacement of [125I]NDP-alpha-MSH from human MC4R expressed in CHO cells; assay type: cell-based
# T3 sequence (P32245 whole entry): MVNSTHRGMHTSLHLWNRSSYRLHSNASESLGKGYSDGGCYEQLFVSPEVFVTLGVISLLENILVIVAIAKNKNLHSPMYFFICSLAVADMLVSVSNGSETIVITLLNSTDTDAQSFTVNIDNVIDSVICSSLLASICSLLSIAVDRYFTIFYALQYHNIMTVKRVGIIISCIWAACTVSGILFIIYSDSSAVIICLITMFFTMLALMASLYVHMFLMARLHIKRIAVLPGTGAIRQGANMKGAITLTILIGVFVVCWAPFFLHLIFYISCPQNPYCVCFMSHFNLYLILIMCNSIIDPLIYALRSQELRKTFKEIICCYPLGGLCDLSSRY
# [5] = Plasma clearance in rat at 4 mg/kg, po; assay type: ADME, organism-based; parameters: dose 4 mg/kg, route oral
# Melanocortin receptor 5 [6] = target: T2, Melanocortin receptor 5; test: Agonist activity at human MC5R expressed in CHO cells assesses as cAMP release; assay type: functional, cell-based
# [7] = Binding affinity to human MC1bR
# Melanocortin receptor 3 [8] = target: T1, Melanocortin receptor 3; test: Agonist activity at human MC3R expressed in CHO cells assessed as cAMP release; assay type: functional, cell-based
# Melanocortin receptor 4 [9] = target: T3, Melanocortin receptor 4; test: Agonist activity at human MC4R expressed in CHO cells assessed as cAMP release; assay type: functional, cell-based
# Melanocortin receptor 4 [10] = target: T3, Melanocortin receptor 4; test: Agonist activity at human MC4R expressed in CHO cells assessed as cAMP release relative to alpha-MSH; assay type: functional, cell-based
# Melanocortin receptor 5 [11] = target: T2, Melanocortin receptor 5; test: Binding affinity to human MC5R
# [12] = Oral bioavailability in Sprague-Dawley rat at 4 mg/kg; assay type: ADME, organism-based; details: in vivo
# Melanocortin receptor 4 [13] = target: T3, Melanocortin receptor 4; test: Agonist activity at human MC4R expressed in CHO cells assessed as cAMP release at 10 uM relative to alpha-MSH; assay type: functional, cell-based
# Homo sapiens [14] = species on record: Homo sapiens; test: Selectivity for human MC4R over human MC1bR
# [15] = Agonist activity at human MC1bR expressed in CHO cells assessed as cAMP release at 10 uM relative to alpha-MSH; assay type: functional
# Homo sapiens [16] = species on record: Homo sapiens; test: Selectivity for human MC4R over human MC3R
# Melanocortin receptor 4 [17] = target: T4, Melanocortin receptor 4 (Rattus norvegicus, UniProt P70596); test: Binding affinity to rat MC4R
# T4 sequence (P70596 whole entry): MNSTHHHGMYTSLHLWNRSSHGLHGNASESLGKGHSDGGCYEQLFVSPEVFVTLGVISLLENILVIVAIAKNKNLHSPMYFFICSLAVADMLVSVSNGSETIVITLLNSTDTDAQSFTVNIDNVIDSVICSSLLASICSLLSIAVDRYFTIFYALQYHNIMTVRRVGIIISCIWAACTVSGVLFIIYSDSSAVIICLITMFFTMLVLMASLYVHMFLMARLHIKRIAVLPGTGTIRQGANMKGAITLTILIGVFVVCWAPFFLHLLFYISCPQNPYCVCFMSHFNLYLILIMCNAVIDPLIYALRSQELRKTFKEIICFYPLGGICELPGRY
# [18] = target: Melanocortin receptor 4 (Rattus norvegicus) (UniProt P70596); test: Agonist activity at rat MC4R expressed in CHO cells assessed as cAMP release at 10 uM relative to alpha-MSH; assay type: functional, cell-based
# Sequence of Melanocortin receptor 4 (Rattus norvegicus) (P70596 whole entry): as above
# [19] = Agonist activity at human MC1bR expressed in CHO cells assessed as cAMP release; assay type: functional, cell-based
# Melanocortin receptor 4 [20] = target: T4, Melanocortin receptor 4; test: Agonist activity at rat MC4R expressed in CHO cells assessed as cAMP release; assay type: functional, cell-based
# T1 sequence (P41968 whole entry): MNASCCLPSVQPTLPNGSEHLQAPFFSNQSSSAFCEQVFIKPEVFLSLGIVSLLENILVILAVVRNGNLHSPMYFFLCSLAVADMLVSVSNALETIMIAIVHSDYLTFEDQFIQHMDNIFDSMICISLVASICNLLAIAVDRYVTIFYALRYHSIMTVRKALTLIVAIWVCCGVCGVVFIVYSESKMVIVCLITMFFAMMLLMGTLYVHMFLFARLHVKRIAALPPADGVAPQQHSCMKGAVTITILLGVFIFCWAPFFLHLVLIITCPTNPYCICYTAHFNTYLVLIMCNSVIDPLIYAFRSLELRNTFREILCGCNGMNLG
structure (smiles),measurement,setting,value
CC[C@H](NC(C)=O)c1cc(Cl)ccc1C1CCN(C(=O)[C@@H]2CN(C(C)(C)C)C[C@H]2c2ccc(OC)cc2F)CC1,Activity,Melanocortin receptor 3 [1],91%
same,Activity,Melanocortin receptor 5 [2],101%
same,IC50,Melanocortin receptor 3 [3],2960 nM
same,IC50,Melanocortin receptor 4 [4],11.2 nM
same,CL/F,[5],66.4 mL/min/kg
same,EC50,Melanocortin receptor 5 [6],167 nM
same,IC50,[7],312 nM
same,EC50,Melanocortin receptor 3 [8],157 nM
same,EC50,Melanocortin receptor 4 [9],4.6 nM
same,%max,Melanocortin receptor 4 [10],100%
same,IC50,Melanocortin receptor 5 [11],205 nM
same,bioavailability,[12],3.8%
CC[C@H](NC(C)=O)c1cc(Cl)ccc1C1CCN(C(=O)[C@H]2CN(C(C)(C)C)C[C@@H]2c2ccc(F)cc2Cl)CC1,IC50,Melanocortin receptor 4 [4],82.2 nM
same,Activity,Melanocortin receptor 4 [13],10%
CC[C@H](NC(C)=O)c1cc(Cl)ccc1C1CCN(C(=O)[C@H]2CN(C(C)(C)C)C[C@@H]2c2ccc(Cl)cc2Cl)CC1,Activity,Melanocortin receptor 3 [1],5%
same,Ratio IC50,Homo sapiens [14],> 6000
same,Activity,[15],3%
same,Activity,Melanocortin receptor 5 [2],10%
same,Ratio IC50,Homo sapiens [16],> 1000
same,IC50,Melanocortin receptor 4 [17],0.5 nM
same,Activity,[18],6%
same,IC50,Melanocortin receptor 3 [3],4290 nM
same,IC50,Melanocortin receptor 4 [4],3.3 nM
same,CL/F,[5],11.4 mL/min/kg
same,EC50,Melanocortin receptor 5 [6],1600 nM
same,IC50,[7],20000 nM
same,Activity,Melanocortin receptor 4 [13],1%
same,IC50,Melanocortin receptor 5 [11],245 nM
same,bioavailability,[12],30.3%
CC[C@H](NC(C)=O)c1cc(Cl)ccc1C1CCN(C(=O)[C@H]2CN(C(C)(C)C)C[C@@H]2c2ccc(OC)cc2F)CC1,IC50,Melanocortin receptor 4 [4],37.2 nM
same,EC50,Melanocortin receptor 4 [9],245 nM
same,%max,Melanocortin receptor 4 [10],34%
CC[C@H](NC(C)=O)c1cc(Cl)ccc1C1CCN(C(=O)[C@H]2CN(C(C)(C)C)C[C@@H]2c2ccc(Cl)cc2F)CC1,IC50,Melanocortin receptor 4 [4],13.2 nM
same,EC50,Melanocortin receptor 4 [9],111 nM
same,%max,Melanocortin receptor 4 [10],45%
CC[C@H](NC(C)=O)c1cc(Cl)ccc1C1CCN(C(=O)[C@@H]2CN(C(C)(C)C)C[C@H]2c2ccc(C(F)(F)F)cc2F)CC1,IC50,Melanocortin receptor 4 [4],22.7 nM
same,EC50,Melanocortin receptor 4 [9],88.8 nM
same,%max,Melanocortin receptor 4 [10],99%
CC[C@H](NC(C)=O)c1cc(Cl)ccc1C1CCN(C(=O)[C@@H]2CN(C(C)(C)C)C[C@H]2c2ccc(Cl)cc2Cl)CC1,IC50,Melanocortin receptor 4 [4],17.9 nM
same,EC50,Melanocortin receptor 4 [9],156 nM
same,%max,Melanocortin receptor 4 [10],48%
CC[C@H](NC(C)=O)c1cc(Cl)ccc1C1CCN(C(=O)[C@@H]2CN(C(C)(C)C)C[C@H]2c2ccc(Cl)cc2F)CC1,Activity,Melanocortin receptor 3 [1],92%
same,Activity,[15],57%
same,Activity,Melanocortin receptor 5 [2],98%
same,EC50,[19],905 nM
same,Activity,[18],106%
same,IC50,Melanocortin receptor 3 [3],1490 nM
same,IC50,Melanocortin receptor 4 [4],6.2 nM
same,CL/F,[5],11.4 mL/min/kg
same,EC50,Melanocortin receptor 5 [6],372 nM
same,IC50,[7],1340 nM
same,EC50,Melanocortin receptor 3 [8],250 nM
same,EC50,Melanocortin receptor 4 [9],2.8 nM
same,%max,Melanocortin receptor 4 [10],97%
same,IC50,Melanocortin receptor 5 [11],129 nM
same,EC50,Melanocortin receptor 4 [20],0.9 nM
same,bioavailability,[12],24.3%
CC[C@H](NC(C)=O)c1cc(Cl)ccc1C1CCN(C(=O)[C@H]2CN(C(C)(C)C)C[C@@H]2c2ccc(Br)cc2F)CC1,Activity,Melanocortin receptor 3 [1],38%
same,Activity,[15],33%
same,Activity,Melanocortin receptor 5 [2],30%
same,EC50,[19],1060 nM
same,IC50,Melanocortin receptor 4 [17],1.5 nM
same,Activity,[18],44%
same,IC50,Melanocortin receptor 3 [3],2950 nM
same,IC50,Melanocortin receptor 4 [4],4.1 nM
same,CL/F,[5],9.12 mL/min/kg
same,EC50,Melanocortin receptor 5 [6],455 nM
same,IC50,[7],174000 nM
same,EC50,Melanocortin receptor 3 [8],917 nM
same,EC50,Melanocortin receptor 4 [9],13.4 nM
same,%max,Melanocortin receptor 4 [10],33%
same,IC50,Melanocortin receptor 5 [11],280 nM
same,EC50,Melanocortin receptor 4 [20],10.3 nM
same,bioavailability,[12],34.3%
CC[C@H](NC(C)=O)c1cc(Cl)ccc1C1CCN(C(=O)[C@H]2CN(C(C)(C)C)C[C@@H]2c2ccc(F)cc2F)CC1,IC50,Melanocortin receptor 4 [4],640 nM
same,EC50,Melanocortin receptor 4 [9],565 nM
same,%max,Melanocortin receptor 4 [10],83%
CC[C@H](NC(C)=O)c1cc(Cl)ccc1C1CCN(C(=O)[C@@H]2CN(C(C)(C)C)C[C@H]2c2ccc3ccccc3c2)CC1,Activity,Melanocortin receptor 3 [1],16%
same,Activity,[15],10%
same,Activity,Melanocortin receptor 5 [2],35%
same,IC50,Melanocortin receptor 3 [3],12200 nM
same,IC50,Melanocortin receptor 4 [4],76.2 nM
same,CL/F,[5],37.6 mL/min/kg
same,EC50,Melanocortin receptor 5 [6],1230 nM
same,IC50,[7],6590 nM
same,EC50,Melanocortin receptor 4 [9],120 nM
same,%max,Melanocortin receptor 4 [10],47%
same,IC50,Melanocortin receptor 5 [11],675 nM
same,bioavailability,[12],15%
CC[C@H](NC(C)=O)c1cc(Cl)ccc1C1CCN(C(=O)[C@H]2CN(C(C)(C)C)C[C@@H]2c2ccc(C(F)(F)F)cc2)CC1,Activity,Melanocortin receptor 3 [1],8%
same,Activity,[15],5%
same,Activity,Melanocortin receptor 5 [2],11%
same,IC50,Melanocortin receptor 4 [17],1 nM
same,Activity,[18],15%
same,IC50,Melanocortin receptor 3 [3],3780 nM
same,IC50,Melanocortin receptor 4 [4],7.8 nM
same,CL/F,[5],5.6 mL/min/kg
same,IC50,[7],16400 nM
same,Activity,Melanocortin receptor 4 [13],1%
same,IC50,Melanocortin receptor 5 [11],450 nM
same,bioavailability,[12],28%
CC[C@H](NC(C)=O)c1cc(Cl)ccc1C1CCN(C(=O)[C@@H]2CN(C(C)(C)C)C[C@H]2c2cc(F)c(F)cc2F)CC1,IC50,Melanocortin receptor 4 [4],128 nM
same,EC50,Melanocortin receptor 4 [9],130 nM
same,%max,Melanocortin receptor 4 [10],93%
CC[C@H](NC(C)=O)c1cc(Cl)ccc1C1CCN(C(=O)[C@@H]2CN(C(C)(C)C)C[C@H]2c2ccc(C(F)(F)F)cc2)CC1,IC50,Melanocortin receptor 4 [4],28.1 nM
same,EC50,Melanocortin receptor 4 [9],67.2 nM
same,%max,Melanocortin receptor 4 [10],90%
CC[C@H](NC(C)=O)c1cc(Cl)ccc1C1CCN(C(=O)[C@@H]2CN(C(C)(C)C)C[C@H]2c2ccc(F)cc2Cl)CC1,IC50,Melanocortin receptor 4 [4],216 nM
same,EC50,Melanocortin receptor 4 [9],215 nM
same,%max,Melanocortin receptor 4 [10],84%
CC[C@H](NC(C)=O)c1cc(Cl)ccc1C1CCN(C(=O)[C@H]2CN(C(C)(C)C)C[C@@H]2c2ccc3ccccc3c2)CC1,IC50,Melanocortin receptor 4 [4],528 nM
same,EC50,Melanocortin receptor 4 [9],1920 nM
same,%max,Melanocortin receptor 4 [10],57%
CC[C@H](NC(C)=O)c1cc(Cl)ccc1C1CCN(C(=O)[C@@H]2CN(C(C)(C)C)C[C@H]2c2ccc(F)cc2F)CC1,IC50,Melanocortin receptor 4 [4],70 nM
same,EC50,Melanocortin receptor 4 [9],17.9 nM
same,%max,Melanocortin receptor 4 [10],108%
CC[C@H](NC(C)=O)c1cc(Cl)ccc1C1CCN(C(=O)[C@H]2CN(C(C)(C)C)C[C@@H]2c2ccc(C(F)(F)F)cc2F)CC1,IC50,Melanocortin receptor 4 [4],9.8 nM
same,Activity,Melanocortin receptor 4 [13],5%
CC[C@H](NC(C)=O)c1cc(Cl)ccc1C1CCN(C(=O)[C@@H]2CN(C(C)(C)C)C[C@H]2c2ccc(Br)cc2F)CC1,Activity,Melanocortin receptor 3 [1],88%
same,Activity,[15],57%
same,Activity,Melanocortin receptor 5 [2],88%
same,EC50,[19],274 nM
same,IC50,Melanocortin receptor 4 [17],1.7 nM
same,Activity,[18],94%
same,IC50,Melanocortin receptor 3 [3],1050 nM
same,IC50,Melanocortin receptor 4 [4],4 nM
same,CL/F,[5],7.3 mL/min/kg
same,EC50,Melanocortin receptor 5 [6],102 nM
same,IC50,[7],695 nM
same,EC50,Melanocortin receptor 3 [8],97.4 nM
same,EC50,Melanocortin receptor 4 [9],2.1 nM
same,%max,Melanocortin receptor 4 [10],100%
same,IC50,Melanocortin receptor 5 [11],65.3 nM
same,EC50,Melanocortin receptor 4 [20],0.5 nM
same,bioavailability,[12],24.7%
CC[C@H](NC(C)=O)c1cc(Cl)ccc1C1CCN(C(=O)[C@H]2CN(C(C)(C)C)C[C@@H]2c2cc(F)c(F)cc2F)CC1,IC50,Melanocortin receptor 4 [4],101 nM
same,EC50,Melanocortin receptor 4 [9],3700 nM
same,%max,Melanocortin receptor 4 [10],50%
